Experimental findings from ChEMBL document CHEMBL3045550, “Design, synthesis and biological activities of new strobilurin derivatives containing substituted pyrazoles” (2010) are described below.

Type in all cases: functional
Assay [1] relates to Blumeria graminis f. sp. tritici. The experiment in a line: Antifungal activity against Blumeria graminis f. sp. tritici infected seven-day-old wheat seedlings assessed as disease control at 400 mg/l after 7 days relative to control.
Assay [2] has as its system Tetranychus cinnabarinus. The experiment in a line: Acaricidal activity against Tetranychus cinnabarinus (carmine spider mite) in kidney bean plants assessed as mortality at 40 mg/l after 48 hr relative to control.
A further assay has as its system Botrytis cinerea. Description: Antifungal activity against Botryotinia fuckeliana infected cucumber leaves assessed as disease control at 400 mg/l after 4 days relative to control.
In assay [3] the test system is Pseudoperonospora cubensis. Description: Antifungal activity against Pseudoperonospora cubensis infected cucumber leaves assessed as disease control at 6.25 mg/l after 5 days relative to control.
Assay [4] deals with Tetranychus cinnabarinus. Description: Acaricidal activity against Tetranychus cinnabarinus (carmine spider mite) in kidney bean plants assessed as mortality at 1.25 mg/l after 48 hr relative to control.
Assay [5] deals with Pseudoperonospora cubensis. The experiment in a line: Antifungal activity against Pseudoperonospora cubensis infected cucumber leaves assessed as disease control at 400 mg/l after 5 days relative to control.
In a further assay the test system is Pyricularia oryzae. The experiment in a line: Antifungal activity against Magnaporthe oryzae infected 12 day old rice plant assessed as disease control at 400 mg/l after 6 days relative to control.
The subject of assay [6] is Pseudoperonospora cubensis. The experiment in a line: Antifungal activity against Pseudoperonospora cubensis infected cucumber leaves assessed as disease control at 25 mg/l after 5 days relative to control.
Assay [7] concerns Tetranychus cinnabarinus. The experiment in a line: Acaricidal activity against Tetranychus cinnabarinus (carmine spider mite) in kidney bean plants assessed as mortality at 10 mg/l after 48 hr relative to control.
For assay [8], the system named is Tetranychus cinnabarinus. Description: Acaricidal activity against Tetranychus cinnabarinus (carmine spider mite) in kidney bean plants assessed as mortality at 5 mg/l after 48 hr relative to control.
The test system of assay [9] is Tetranychus cinnabarinus. The experiment in a line: Acaricidal activity against Tetranychus cinnabarinus (carmine spider mite) in kidney bean plants assessed as mortality at 600 mg/l after 48 hr relative to control.
Assay [10] has as its system Blumeria graminis f. sp. tritici. The experiment in a line: Antifungal activity against Blumeria graminis f. sp. tritici infected seven-day-old wheat seedlings assessed as disease control at 12.5 mg/l after 7 days relative to control.
Assay [11] has as its system Tetranychus cinnabarinus. Description: Acaricidal activity against Tetranychus cinnabarinus (carmine spider mite) in kidney bean plants assessed as mortality at 20 mg/l after 48 hr relative to control.
In assay [12] the test system is Pseudoperonospora cubensis. Description: Antifungal activity against Pseudoperonospora cubensis infected cucumber leaves assessed as disease control at 3.12 mg/l after 5 days relative to control.
In assay [13] the test system is Tetranychus cinnabarinus. The experiment in a line: Acaricidal activity against Tetranychus cinnabarinus (carmine spider mite) in kidney bean plants assessed as mortality at 2.5 mg/l after 48 hr relative to control.
In assay [14] the test system is Blumeria graminis f. sp. tritici. Description: Antifungal activity against Blumeria graminis f. sp. tritici infected seven-day-old wheat seedlings assessed as disease control at 1.56 mg/l after 7 days relative to control.
The subject of assay [15] is Tetranychus cinnabarinus. Description: Acaricidal activity against Tetranychus cinnabarinus (carmine spider mite) in kidney bean plants assessed as mortality at 150 mg/l after 48 hr relative to control.
Assay [16] deals with Tetranychus cinnabarinus. Description: Acaricidal activity against Tetranychus cinnabarinus (carmine spider mite) in kidney bean plants assessed as mortality at 38 mg/l after 48 hr relative to control.

Consider `CO/C=C(/C(=O)OC)c1ccccc1COc1c(C)c(-c2ccc(C)cc2C)nn1C`, for which the Activity in [1] is listed as 100%; with Tetranychus cinnabarinus [2], 100%; with Botrytis cinerea, 50%; in [3], 98%; in the assay with Tetranychus cinnabarinus [4], 28%; in assay [5], 100%. In addition, the Activity in the assay on Pyricularia oryzae is given as 100%; in assay [6], 100%; in the assay on Tetranychus cinnabarinus [7], 89%; with Tetranychus cinnabarinus [8], 85%; in the assay on Tetranychus cinnabarinus [9], 100%; in [10], 100%. Besides, the Activity with Tetranychus cinnabarinus [11] came to 100%; in assay [12] it was 80%; in the assay on Tetranychus cinnabarinus [13], 36%; in assay [14] it was 90%; in the assay on Tetranychus cinnabarinus [15] it was 100%; with Tetranychus cinnabarinus [16], 100%.

As for `CC(C)(C)c1ccc(CSc2cnn(C(C)(C)C)c(=O)c2Cl)cc1` [PYRIDABEN], the Activity was 77% in the assay with Tetranychus cinnabarinus [2]; 0% with Tetranychus cinnabarinus [4]; 48% in the assay on Tetranychus cinnabarinus [7]; 22% with Tetranychus cinnabarinus [8]; 57% in the assay on Tetranychus cinnabarinus [11]; 12% with Tetranychus cinnabarinus [13].
